Test results published in PubChem BioAssay AID330 (DTP/NCI, 2004).
Inconclusive results and toxic doses are left out. Rule for the calls: active = survival T/C of 150% or more; inactive = T/C below 125% in these data.

Test system: P388 leukemia ip, CD2F1 mice, survival T/C
Assay: NCI In Vivo Anticancer Drug Screen. Data for tumor model P388 Leukemia (intraperitoneal) in CD2F1 (CDF1) mice
Settings: endpoint: median survival time, schedule: Q04DX003 (ip), vehicle: distilled water + Tween-80, higher = longer survival
In short: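 Mice carrying the transplanted tumor received test compound or vehicle. Survival was recorded in each group, and the value is the treated-group measurement divided by that of the vehicle-treated control group.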

Measured: T/C

COc1cc2c[n+]3c(c(C)c2cc1OC)-c1cc2c(cc1CC3)OCO2
inactive: dose: 6.25 mg/kg/injection 106 % of control | dose: 12.5 mg/kg/injection 113 % of control | dose: 25.0 mg/kg/injection 116 % of control | dose: 50.0 mg/kg/injection 108 % of control
